Results taken from patent US12138256B2, “Treatment of cardiopulmonary disorders” (Bayer Aktiengesellschaft, priority 2021, dated 2024).
Where two headings read alike, the source gives them in different places.

Columns and labels:
[1] = Thermal stability of the solid (90° C., 7 days, HPLC peak areas); format: physicochemical
Method: 0.3 mg of the test compound, e.g. comparative example 11 were solved in 0.1 ml dimethylsulfoxide and 0.4 ml acetonitrile. Then 1.0 ml water was added. For complete dissolution the HPLC vial was shaken and sonicated. This solution was immediately analyzed by HPLC (reference at t0). 0.3 mg of the test compound was weighed into another HPLC vial. The vial was capped and stored for 7 days in a heating block at 90° C.
After this time the vial was decapped and 0.1 ml dimethylsulfoxide and 0.4 ml acetonitrile were added to the stressed compound. Then 1.0 ml water was added. For complete dissolution the HPLC vial was shaken and sonicated. The sample was analyzed by HPLC (sample after 1 week). The peak areas in percentage are used for quantification.

[2] = Phase I single dose inhaled, inhaled + charcoal block, oral and intravenous: pharmacokinetics and lung deposition (C-4.3); format: in vivo, human; settings: for bioavailability / half-life: male, human, plasma; for half-life: read-out: elimination half-life (converted)
Method: Healthy white male subjects, aged 18 to 45 years with a body mass index (BMI) above/equal 18.5 and below/equal 29.9 kg/m^2 were treated in a clinical phase I study with a single inhaled dose of 1000 μg (nominal dose), a single inhaled dose of 1000 μg (nominal dose)+charcoal block, a single oral dose of 1000 μg and a single infusion over 2 h of 100 μg of example 4. As the bioavailability of an intravenous application is generally 100% per definition and therefore higher than in case of an oral or […] administration, the intravenous dose was carefully selected to be lower than the oral and inhaled dose to avoid higher plasma concentration resulting from a high IV dose and potential side effect, e.g. reduction in blood pressure or syncope. Therefore, 100 μg was selected for the IV dose in this investigation. Seven days washout period between treatments was applied. The subjects swallowed a solution for oral administration (20 ml comprising 1000 μg, see under D-2, table 50). The subjects received a solution as a single infusion over 2 hours (see under D-2 table 50). The subjects inhaled the drug powder from capsules (see under D-1, e.g. tables 17 and 20) inserted into a handheld inhalation device by one deep inhalative breath. After inhalation of the dry powder formulation of this drug, some parts of the nominal dose remain in the capsule and the device, the dose which reaches the body at the mouthpiece is called the emitted dose. The emitted dose can be calculated/determined as followed: nominal dose−(remains in the capsule+remains in the device). After inhalation of the dry powder, one part of the emitted dose enters the gastrointestinal tract (GIT) and is called the oral part of the emitted dose, the other part of the emitted dose which reaches the lung through the respiratory airways is called the lung dose and represents the lung deposited dose. As the lung is the target organ of the effect, the lung deposited dose must be quantified. Lung deposition can be indirectly estimated, by determining the part of the nominal dose which reaches the GIT and the remains in the capsule and the device. To investigate and determine lung deposition, the following investigations were done (see also FIG. 77): • 1—Inhaled application of a single dose of 1000 μg of the dry powder. • 2—Inhaled application of a single dose of 1000 μg of the dry powder in combination with oral administration of charcoal block. The charcoal block capped the oral absorption of GIT part of the dose, as example 4 completely adsorbed to charcoal block. This implies that the concentrations of example 4 measured reach the systemic circulation via the lung. • 3—Administration of a single oral dose of 1000 μg example 4 to determine the oral absorption. • 4—Administration of a 2 h infusion of example 4 to investigate the elimination.
Plasma concentrations of example 4 were measured after all different types of administrations, in addition the remains in the device and the capsule were measured after inhaled application. […] The longer terminal half-life after inhalation can be explained by the formation of a pulmonary depot of example 4 in the lungs from which the substance is continuously transferred to the circulatory system.
The emitted dose is calculated to be 720 μg, as the remains in the capsule were 160 μg and the remains in the device were 120 μg, see FIG. 79.

## O=C(O)c1ccc(CCN(CCc2ccccc2OCc2ccc(-c3ccc(C(F)(F)F)cc3)cc2Cl)[C@H]2CCCc3nc(C(=O)O)ccc32)cc1 [comparative example 11, (5S)-5-{[2-(4-carboxyphenyl)ethyl][2-(2-{[3-chloro-4′-(trifluoromethyl)[biphenyl]-4-yl]methoxy}phenyl)ethyl]amino}-5,6,7,8-tetrahydroquinoline-2-carboxylic acid]
[1]
  thermal stability: stable

## O=C(O)c1ccc(CCN(CCc2ccccc2OCc2ccc(-c3ccc(C(F)(F)F)cc3)cc2Cl)[C@H]2CCCc3nc(C(=O)O)ccc32)cc1 [example 4, (5S)-{[2-(4-Carboxyphenyl)ethyl][2-(2-{[3-chloro-4′-(trifluoromethyl)biphenyl-4-yl]methoxy}phenyl)-ethyl]amino}-5,6,7,8-tetrahydroquinoline-2-carboxylic acid]
[2]; after inhalation of 1000 μg in humans
  emitted dose: 720 µg
[2]; inhaled 1000 μg
  oral part of the dose: approximately 13 % of the nominal dose
[2]; inhaled or intranasal, 1000 μg, dry powder inhaled with charcoal (lung dose), read-out: absolute bioavailability
  bioavailability: 16.3%
[2]; inhaled or intranasal, 1000 μg, dry powder inhaled without charcoal, read-out: absolute bioavailability
  bioavailability: 18.8%
[2]; inhaled or intranasal, 1000 ug, inhaled 1000 μg with charcoal
  half-life: 16.1 h
[2]; inhaled or intranasal, 1000 ug, inhaled 1000 μg without charcoal
  half-life: 15.1 h
[2]; inhaled or intranasal, 1000 ug, read-out: relative bioavailability, inhaled with charcoal block to inhaled without
  bioavailability: 86.9%
[2]; iv, 100 μg, intravenous, 100 μg infusion over 2 h
  half-life: 0.26 h
[2]; po, 1000 ug, oral, 1000 μg solution
  half-life: 4.43 h
